The source of these data is patent US11111251B2, “Positive allosteric modulators of the muscarinic acetylcholine receptor M1” (Vanderbilt University, priority 2016, dated 2021).

This assay concerns the target T1, human mAChR M1 (Homo sapiens, UniProt P11229).
T1 sequence (P11229 1-460): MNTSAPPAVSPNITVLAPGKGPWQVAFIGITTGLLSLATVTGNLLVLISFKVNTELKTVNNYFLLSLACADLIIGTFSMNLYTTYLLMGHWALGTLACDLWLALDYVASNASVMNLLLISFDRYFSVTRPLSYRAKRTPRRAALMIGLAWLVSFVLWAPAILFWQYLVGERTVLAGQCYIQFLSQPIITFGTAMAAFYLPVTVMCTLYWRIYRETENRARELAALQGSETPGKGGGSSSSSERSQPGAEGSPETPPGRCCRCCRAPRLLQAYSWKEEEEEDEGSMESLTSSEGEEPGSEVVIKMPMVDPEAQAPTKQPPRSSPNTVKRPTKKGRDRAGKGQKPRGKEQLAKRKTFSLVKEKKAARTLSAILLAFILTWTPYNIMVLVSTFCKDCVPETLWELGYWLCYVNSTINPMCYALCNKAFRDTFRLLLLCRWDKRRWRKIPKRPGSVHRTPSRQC
The assay can be described thus: mAChR M1 cell-based functional assay: calcium mobilization, positive allosteric modulator mode (increase in EC20 acetylcholine response). To be noted: for Emax: read-out: Human M1 Emax (%). The method, boiled down: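 Calcium-flux assay in CHO-K1 cells stably expressing human M1, loaded with Fluo-4 AM (50 min, 37 °C) and read at 1 Hz. Compound (11-point, 1:3 series) was added at 4 s, EC20 acetylcholine at 144 s and EC80 at 230 s. PAM activity is the concentration-dependent rise in the EC20 response, fitted with a four-parameter logistic.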
For orientation: A change in cytosolic calcium serves as a functional read-out for many receptors and channels.

Setting [1] is: Table 2, human M1, read-out: Human M1 EC50.
The mark [2] stands for this setting: Table 1, mAChR M1 cell-based functional assay, PAM mode, species not given, read-out: EC50.

Like-named read-outs stand apart in the source and are kept apart here. A value given as a limit tells only on which side of the number the result lay.

As a reminder, the EC50 is the concentration at which the effect is half-maximal. What is called Emax is the maximal effect, on the per cent scale that the assay sets. Regarding `Cn1ncc2nc(C(=O)NC3CC4(COC4)C3)cc(Cc3ccc(-n4cccn4)cc3)c21` [Compound 500, 1-methyl-N-(2-oxaspiro[3.3]heptan-6-yl)-7-[(4-pyrazol-1-ylphenyl)methyl]pyrazolo-[4,3-b]pyridine-5-carboxamide], the EC50 under setting [1] was greater than 10000 nM. Also, the Emax (Table 2, human M1) is 63.1%.
Consider `O=C(NC1CCC1)c1cc(Cc2ccc(-n3cccn3)cc2)c2sccc2n1` [Compound 436, N-cyclobutyl-7-[(4-pyrazol-1-ylphenyl)methyl]thieno[3,2-b]pyridine-5-carboxamide], for which the concentration for a half-maximal effect (EC50) under setting [1] was found to be 1500 nM. Further, under “Table 2, human M1”, the Emax was 69.1%.
For the compound `Cc1nc(-c2ccc(Cc3cc(C(=O)NC4CC(C)OC(C)C4)nc4ccsc34)cc2)co1` (stereo not drawn) [Compound 299, N-(2,6-dimethyltetrahydropyran-4-yl)-7-[[4-(2-methyloxazol-4-yl)phenyl]methyl]thieno[3,2-b]pyridine-5-carboxamide], the EC50 under setting [1] worked out at 702 nM. Moreover, the Emax (Table 2, human M1) stood at 75%.
`Cc1ccc(Oc2cc(C(=O)N[C@@H]3CC[C@H]3O)nc3ccsc23)cn1` [Compound 16]: the EC50 under setting [2] was greater than 10000 nM.
With `Cn1cc2c(-c3ccc(Oc4cc(C(=O)N[C@H]5CCOC[C@@H]5O)nc5ccsc45)c(F)c3)cccc2n1` [Compound 13, 7-[2-fluoro-4-(2-methylindazol-4-yl)phenoxy]-N-[(3R,4S)-3-hydroxytetrahydropyran-4-yl]thieno[3,2-b]pyridine-5-carboxamide], the EC50 under setting [2] amounted to 4120 nM.
Take `COCCNC(=O)c1cc(Cc2ccc(-c3ccn(C)n3)nc2)c2sccc2n1` [Compound 416, N-(2-methoxyethyl)-7-[[6-(1-methylpyrazol-3-yl)-3-pyridyl]methyl]thieno[3,2-b]pyridine-5-carboxamide]: the EC50 under setting [1] was found to be 1290 nM. Moreover, the maximal effect (Emax) (Table 2, human M1) was found to be 71.4%.
In the case of `Cc1csc2c(Cc3ccc(-n4cccn4)cc3)cc(C(=O)N[C@@H]3CCCCC[C@H]3O)nc12` [Compound 120, N-[(1R,2R)-2-hydroxycycloheptyl]-3-methyl-7-[(4-pyrazol-1-ylphenyl)methyl]thieno[3,2-b]pyridine-5-carboxamide], under setting [1], the EC50 came out at 1320 nM. For the same compound, the Emax (Table 2, human M1) came to 75.3%.
Consider `Cn1cc(-c2ccc(Cc3cc(C(=O)N[C@H]4COCC[C@@H]4O)nc4ccsc34)c(F)c2)cn1` [Compound 53, 7-[[2-fluoro-4-(1-methylpyrazol-4-yl)phenyl]methyl]-N-[(3S,4S)-4-hydroxytetrahydropyran-3-yl]thieno[3,2-b]pyridine-5-carboxamide], for which the EC50 under setting [1] stood at 3070 nM. Also, the Emax (Table 2, human M1) was 79%.
For the compound `Cn1ncc2nc(C(=O)NC[C@H]3CCCO3)cc(Cc3ccc(-n4cccn4)cc3)c21` [Compound 502, 1-methyl-7-[(4-pyrazol-1-ylphenyl)methyl]-N-[[(2R)-tetrahydrofuran-2-yl]methyl]-pyrazolo[4,3-b]pyridine-5-carboxamide], under setting [1], the EC50 was 4140 nM. Besides, the Emax (Table 2, human M1) was 67.2%.
The corresponding values for `Cn1ccc(-c2ccc(Cc3cc(C(=O)N[C@H]4CCOC[C@@H]4O)nc4ccn(C)c34)cc2)n1` [Compound 474, N-[(3R,4S)-3-hydroxytetrahydropyran-4-yl]-1-methyl-7-[[4-(1-methylpyrazol-3-yl)phenyl]methyl]pyrrolo[3,2-b]pyridine-5-carboxamide] are 6.43 nM and 70.4%.
In the case of `Cc1nc(-c2ccc(Cc3cc(C(=O)NC4CCOC(C)(C)C4)nc4ccsc34)cc2)co1` (stereo not drawn) [Compound 300, N-(2,2-dimethyltetrahydropyran-4-yl)-7-[[4-(2-methyloxazol-4-yl)phenyl]methyl]thieno[3,2-b]pyridine-5-carboxamide], under setting [1], the EC50 amounted to 225 nM. Also, the Emax (Table 2, human M1) is 75.3%.
Take `Cc1ccc(Cc2cc(C(=O)NC3CC(F)C3)nc3ccsc23)cn1` (stereo not drawn) [Compound 259, N-(3-fluorocyclobutyl)-7-[(6-methyl-3-pyridyl)methyl]thieno[3,2-b]pyridine-5-carboxamide]: under setting [1], the EC50 was greater than 10000 nM. Besides, the Emax (Table 2, human M1) worked out at 56.2%.
The corresponding values for `Cn1cc(-c2cc(F)c(Cc3cc(C(=O)N[C@H]4CCCC[C@@H]4O)nc4ccsc34)c(F)c2)cn1` [Compound 57, 7-[[2,6-difluoro-4-(1-methylpyrazol-4-yl)phenyl]methyl]-N-[(1S,2S)-2-hydroxycyclohexyl]thieno[3,2-b]pyridine-5-carboxamide] are 2640 nM and 80.1%.
Take `CC1CC(NC(=O)c2cc(Cc3ccc(-c4ccn(C)n4)cc3)c3sccc3n2)CC(C)O1` (stereo not drawn) [Compound 326, N-(2,6-dimethyltetrahydropyran-4-yl)-7-[[4-(1-methylpyrazol-3-yl)phenyl]methyl]thieno[3,2-b]pyridine-5-carboxamide]: the EC50 under setting [1] was 2840 nM. Also, the Emax (Table 2, human M1) amounted to 83.9%.
For `Cn1cc(-c2ccc(Cc3cc(C(=O)NC4CC5(COC5)C4)nc4ccsc34)cn2)cn1` [Compound 327, 7-[[6-(1-methylpyrazol-4-yl)-3-pyridyl]methyl]-N-(2-oxaspiro[3.3]heptan-6-yl)thieno[3,2-b]pyridine-5-carboxamide], the EC50 under setting [1] amounted to 166 nM. For the same compound, the Emax (Table 2, human M1) stood at 79.2%.
The corresponding values for `Cn1cc(-c2ccc(Cc3cc(C(=O)N[C@H]4CCOC[C@@H]4O)nc4ccsc34)c(F)c2)cn1` [Compound 52, 7-[[2-fluoro-4-(1-methylpyrazol-4-yl)phenyl]methyl]-N-[(3R,4S)-3-hydroxytetrahydropyran-4-yl]thieno[3,2-b]pyridine-5-carboxamide] are 1960 nM and 76%.
On to “N-[(1S,2S)-2-hydroxycyclohexyl]-7-(4-[(4-2-ylphenyl)methyl]thieno[3,2-b]pyridine-5-carboxamide [Compound 295]”, for which the “Human M1 Emax (%)” value (Table 2, human M1) was determined as 72.42%.
As for `COCCNC(=O)c1cc(Cc2ccc(-c3cnn(C)c3)nc2)c2sccc2n1` [Compound 342, N-(2-methoxyethyl)-7-[[6-(1-methylpyrazol-4-yl)-3-pyridyl]methyl]thieno[3,2-b]pyridine-5-carboxamide], the EC50 under setting [1] amounted to 289 nM. In addition, the maximal response (Emax) (Table 2, human M1) was determined as 89.5%.
In the case of `O=C(N[C@@H]1CC[C@H]1O)c1cc(Cc2ccc(-n3cccn3)cc2)c2sccc2n1` [Compound 227, N-[(1R,2R)-2-hydroxycyclobutyl]-7-[(4-pyrazol-1-ylphenyl)methyl]thieno[3,2-b]pyridine-5-carboxamide], under setting [1], the EC50 was 125 nM. The Emax (Table 2, human M1) worked out at 79.8%.
Taken in the same sequence, the figures for `O=C(NC1CCCC1=O)c1cc(Cc2ccc(-n3cccn3)cc2)c2sccc2n1` (stereo not drawn) [Compound 437, N-(2-oxocyclopentyl)-7-[(4-pyrazol-1-ylphenyl)methyl]thieno[3,2-b]pyridine-5-carboxamide] were 201 nM and 70%.
Taken in the same sequence, the figures for `Cn1ncc2nc(C(=O)N[C@H]3CCC[C@@H]3O)cc(Cc3ccc(-c4cscn4)cc3)c21` [Compound 491, N-[(1S,2S)-2-hydroxycyelopentyl]-1-methyl-7-[(4-thiazol-4-ylphenyl)methyl]pyrazolo-[4,3-b]pyridine-5-carboxamide] were 1710 nM and 72.9%.
Regarding `Cc1ncc(Cc2cc(C(=O)NC34CC5CC(CC(O)(C5)C3)C4)nc3ccsc23)s1` [Compound 141, N-(3-hydroxy-1-adamantyl)-7-[(2-methylthiazol-5-yl]methyl]thieno[3,2-b]pyridine-5-carboxamide], the EC50 under setting [1] is greater than 10000 nM. Moreover, the Emax (Table 2, human M1) is 36.9%.
Taken in the same sequence, the figures for `Cc1nc(-c2ccc(Cc3cc(C(=O)N[C@@H]4CCCC[C@H]4O)nc4ccsc34)cc2)co1` [Compound 168, N-[(1R,2R)-2-hydroxycyclohexyl]-7-[[4-(2-methyloxazol-4-yl)phenyl]methyl]thieno[3,2-b]pyridine-5-carboxamide] were 84.2 nM and 82.6%.
In the case of `Cc1nc(-c2ccc(Cc3cc(C(=O)N4CCC[C@@H](O)C4)nc4ccsc34)cc2)co1` [Compound 173, [(3R)-3-hydroxy-1-piperidyl]-[7-[[4-(2-methyloxazol-4-yl)phenyl]methyl]thieno[3,2-b]pyridin-5-yl]methanone], under setting [1], the half-maximal effective concentration (EC50) was greater than 10000 nM. In addition, the Emax (Table 2, human M1) was 37%.
In the case of `Cc1ncc(Cc2cc(C(=O)N[C@@H]3CCC[C@H]3O)nc3ccsc23)s1` [Compound 133, N-[(1R,2R)-2-hydroxycyclopentyl]-7-[(2-methylthiazol-5-yl)methyl]thieno[3,2-b]pyridine-5-carboxamide], the EC50 under setting [1] turned out to be 3620 nM. The maximal effect (Emax) (Table 2, human M1) stood at 77.9%.
`O=C(N[C@@H]1CCOC[C@H]1O)c1cc(Cc2ccc(C(F)(F)F)nc2)c2sccc2n1` [Compound 91, N-[(3S,4R)-3-hydroxytetrahydropyran-4-yl]-7-[[6-(trifluoromethyl)-3-pyridyl]methyl]thieno[3,2-b]pyridine-5-carboxamide]: the EC50 under setting [1] turned out to be 73.8 nM. Besides, the Emax (Table 2, human M1) was 87.9%.
As for `O=C(N[C@@H]1CCCOC1)c1cc(Cc2ccc(-c3cscn3)cc2)c2sccc2n1` [Compound 212, N-[(3R)-tetrahydropyran-3-yl]-7-[(4-thiazol-4-ylphenyl)methyl]thieno[3,2-b]pyridine-5-carboxamide], the EC50 under setting [1] came to 858 nM. The Emax (Table 2, human M1) was found to be 73.3%.
